Reference: patent EP1224299B1, “RECOMBINANT PROTEINS AND PEPTIDES FOR ENDOTOXIN BIOSENSORS, ENDOTOXIN REMOVAL, AND ANTI-MICROBIAL AND ANTI-ENDOTOXIN THERAPEUTICS” (priority 1999, dated 2001)
Where two headings read alike, the source gives them in different places. Ends that are not written are not given here. Peptide text beside a SMILES is read from it.

Experiments:
[1] = Limulus Kinetic-QCL assay, inhibition of endotoxin-induced LAL reaction; format: biochemical, E.coli 055:B5; settings: 200 EU/ml LPS, 1 h at 37 °C, 1000-fold dilution; read-out: 50% endotoxin-neutralizing concentration (ENC50)
Excerpt: The Limulus Kinetic-QCL is a quantitative, kinetic assay for the detection of gram-negative bacterial endotoxin. This assay utilizes the initial part of LAL endotoxin reaction to activate an enzyme, which in turn releases p-nitroaniline from a synthetic substrate, producing a yellow color. The time required before the appearance of a yellow color is inversely proportional to the amount of endotoxin present. Throughout the assay, the absorbance at 405 nm of each well of the microplate was monitored. Using the initial absorbance reading of each well as its own blank, the time required for the absorbance to increase 0.200 absorbance units were calculated as Reaction Time.
Briefly, 25 µl of endotoxin solution (LPS, E.coli 055:B5) at 200 EU/ml was mixed with an equal volume of SSCrFCES at 1 µM, in a series of 2-fold dilutions in LAL reagent water in disposable endotoxin-free glass dilution tubes (BioWhittaker) and incubated at 37°C for one hour. […] The endotoxin activity was then quantified with Limulus Kinetic-QCL. […] The plate was then pre-incubated for > 10 minutes in a temperature-controlled ELISA plate reader. […] The absorbance at 405 nm of each well of the microtitre plate was monitored at time intervals of 5 minutes over a period of 2 hours. A 5 second automix was activated prior to reading. […]
The high sensitivity of the assay allowed for very low levels of endotoxin to be detected. […]

[2] = Hill's plot for interaction between synthetic peptides and lipid A; format: binding
[3] = LPS-induced lethality in galactosamine-sensitized mice; format: in vivo, C57BL/6J mice; settings: for protection: 25 and 75 µg peptide; for decrease in LPS-induced lethality: 25 or 75 µg, pre-incubated with LPS 30 min prior to i.p. injection
Experimental: The anti-endotoxin potency of SSCrFCES was investigated in C57BL/6J mice. Mice are typically resistant to endotoxin. However, the sensitivity of mice to endotoxin can be enhanced > 1,000-fold by co-injection with a liver-specific inhibitor, galactosamine (31). In our study, intraperitoneal (i.p.) injection of 2.5 ng of E. coli 055:B5 LPS together with 15 mg of galactosamine hydrochloride in 0.2 ml of saline induced nearly 100% lethality in 18-25 g C57BL/6J mice within 7 hours. Various concentrations of SSCrFCES (1, 2, and 4 µM) and synthetic peptides (25 and 75 µg) were injected intravenously (i.v.) through tail vein 10 minutes after i.p. injection of the LPS-galactosamine mixture. Lethality was observed over 3 days after injection. Statistical analysis were performed using the Kaplan-Meier test (32) and log rank pairwise test.

[4] = tested on: 30 clinical strains of P. aeruginosa; assay: Microbicidal concentration (MBC) assay, 30 clinical strains; format: cell-based; settings: for MBC50: concentration of peptide required to kill 50% of the strains
Experimental: Test strains cultured on Mueller-Hinton agar (MHA, Becton Dickinson, USA) were inoculated into 10 ml Mueller-Hinton broth (MHB, Becton Dickinson, USA) and grown overnight at 37°C in a shaker incubator (Model 4536, Forma Scientific, Inc., USA) at 230 rpm. Overnight broth cultures were diluted to give a final cell density of 10^5 colony forming units/ml (cfu/ml). One hundred microliters of the bacterial suspension was dispensed into sterile polypropylene 8-strip PCR-tubes (Quality Scientific Plastics, USA). Eleven microliters of serially diluted sushi peptides, ranging in final concentrations of 0.03-4 µg/ml, were then added. The peptides were constituted at 10 times the required test concentrations in 0.01% acetic acid and 0.2% bovine serum albumin (BSA). Positive controls were cultures without test peptides. Uninoculated MHB was used as negative control. All tests were carried out in triplicate.
Cultures were incubated at 37°C for 18-24 h, with the PCR-tubes held in horizontal position and shaken at 230 rpm. Cell counts were determined by standard drop-count method. The killing efficiency for the four sushi peptides were calculated based on standard drop-count method.

P. aeruginosa ATCC 27853 = assay: Killing rate assay; format: cell-based; settings: 0.06 µg/ml, initial 10^9 cfu/ml; concentration achieving MBC90
Excerpt: The killing rate assay was adapted from the MBC test above, with different contact time of peptides with the bacteria arrested at regular intervals and plated for colony count. An initial density of 10^9 cfu/ml was used. […] This is one of the important features of an effective therapeutic agent.

Human erythrocytes = assay: Hemolysis assay, human erythrocytes; format: cell-based; settings: for Concentration of peptide to induce 50% haemolysis: red cells of human; for Hemolytic activity: at 100 µg/ml, 0.4% erythrocytes, 1 h
Experimental: Human and rabbit erythrocytes were both used to test the hemolytic activities of the peptides. Whole blood was collected in heparinized sterile syringe, transferred to sterile borosilicate tube and centrifuged at 1200 g for 5 minutes at 4°C. The supernatant including the leukocytes above the erythrocyte pellet was discarded. The erythrocytes were washed 3 times using three volumes of pre-chilled pyrogen-free saline (PFS). An erythrocyte suspension at 0.4% was prepared for the hemolysis assay. Serial two-fold dilutions of the peptides was prepared in PFS and 100 µl aliquots were added to equal volumes of 0.4% erythrocyte solution in a 96-well microtiter plate (Nunclon™ Δ surface, Nunc) to give final peptide concentrations ranging from 6 to 100 µg/ml. The mixtures were incubated at 37°C for 1 h. The intact erythrocytes were then pelleted by centrifuging at 1000 g for 5 min. One hundred µl of the supernatant was transferred to a new 96-well microtiter plate and the amount of hemoglobin released into the supernatant was determined by reading the absorbance at 414nm using a SPECTRAmax™ 340 plate reader with SOFTmax PRO™ version 1.2.0. A positive control with 100 µl of 0.4% erythrocyte lysed in 1% Triton-X 100 was taken as 100% lysis. The negative control was the erythrocytes in PFS alone, which gave minimal lysis. This was taken as 0%.

[5] = ligand LPS S. minnesota Re595; read-out: Equilibrium constant; cited from earlier work
P.aeruginosa = settings: cited from earlier work

CC[C@H](C)[C@H](NC(=O)[C@H](CCCNC(=N)N)NC(=O)[C@H](C)NC(=O)[C@H](CCSC)NC(=O)CNC(=O)[C@H](CCCCN)NC(=O)[C@H](CC(C)C)NC(=O)[C@H](CCCCN)NC(=O)[C@H](Cc1ccccc1)NC(=O)CN)C(=O)N[C@@H](CO)C(=O)N[C@@H](CS)C(=O)N[C@@H](CC(C)C)C(=O)N1CCC[C@H]1C(=O)N[C@@H](CC(N)=O)C(=O)NCC(=O)N[C@@H](CCC(N)=O)C(=O)N[C@@H](Cc1c[nH]c2ccccc12)C(=O)N[C@@H](CO)C(=O)N[C@@H](CC(N)=O)C(=O)N[C@@H](Cc1ccccc1)C(=O)N1CCC[C@H]1C(=O)N1CCC[C@H]1C(=O)N[C@@H](CCCCN)C(=O)N[C@@H](CS)C(=O)N[C@H](C(=O)N[C@@H](CCCNC(=N)N)C(=O)N[C@@H](CCC(=O)O)C(=O)N[C@@H](CS)C(=O)N[C@@H](C)C(=O)N[C@@H](CCSC)C(=O)N[C@H](C(=O)N[C@@H](CO)C(=O)N[C@@H](CO)C(=O)O)C(C)C)[C@@H](C)CC [S1] (H-GFKLKGMARISCLPNGQWSNFPPKCIRECAMVSS-OH; N-terminus and C-terminus assumed)
EC50 [1]: 2250 nM
Hill's plot co-operativity n [2]: 2.42
protection [3]: 22-100%
decrease in LPS-induced lethality [3]: 20-55%
MBC90 [4]: 0.008 µM
MBC50 [4]: ≤0.03 µg/mL
Killing rate (time to MBC90) (P. aeruginosa ATCC 27853): 7 min
Concentration of peptide to induce 50% haemolysis (Human erythrocytes): 290 µg/mL

CC[C@H](C)[C@H](NC(=O)[C@H](CCCCN)NC(=O)[C@H](C)NC(=O)[C@H](CCCCN)NC(=O)CNC(=O)[C@H](CCCCN)NC(=O)[C@H](CC(C)C)NC(=O)[C@H](CCCCN)NC(=O)[C@H](Cc1ccccc1)NC(=O)CN)C(=O)N[C@@H](CO)C(=O)N[C@@H](CS)C(=O)N[C@@H](CC(C)C)C(=O)N1CCC[C@H]1C(=O)N[C@@H](CC(N)=O)C(=O)NCC(=O)N[C@@H](CCC(N)=O)C(=O)N[C@@H](Cc1c[nH]c2ccccc12)C(=O)N[C@@H](CO)C(=O)N[C@@H](CC(N)=O)C(=O)N[C@@H](Cc1ccccc1)C(=O)N1CCC[C@H]1C(=O)N1CCC[C@H]1C(=O)N[C@@H](CCCCN)C(=O)N[C@@H](CS)C(=O)N[C@H](C(=O)N[C@@H](CCCNC(=N)N)C(=O)N[C@@H](CCC(=O)O)C(=O)N[C@@H](CS)C(=O)N[C@@H](C)C(=O)N[C@@H](CCSC)C(=O)N[C@H](C(=O)N[C@@H](CO)C(=O)N[C@@H](CO)C(=O)O)C(C)C)[C@@H](C)CC [S1Δ] (H-GFKLKGKAKISCLPNGQWSNFPPKCIRECAMVSS-OH; N-terminus and C-terminus assumed)
EC50 [1]: 875 nM
protection [3]: 22-100%
decrease in LPS-induced lethality [3]: 20-55%
MBC90 [4]: 0.016 µM
MBC50 [4]: ≤0.03 µg/mL
MBC90 ([4]; concentration of peptide required to kill 90% of the strains): 0.06 µg/mL
Killing rate (time to MBC90) (P. aeruginosa ATCC 27853): 7 min
Concentration of peptide to induce 50% haemolysis (Human erythrocytes): 295 µg/mL

BPI pep85-99 (15 mer): 15 mer peptide of BPI (IKISGKWKAQKRFLK; UniProt P17213 116-130, looked up, fragment)
Kd [5]: 1760 nM

HAEHKVKIGVEQKYGQFPQGTEVTYTCSGNYFLM [S3]
Concentration of peptide to induce 50% haemolysis (Human erythrocytes): 160 µg/mL

HAEHKVKIKVKQKYGQFPQGTEVTYTCSGNYFLM [S3Δ]
Hemolytic activity (Human erythrocytes): 35%
Hemolytic activity (Human erythrocytes; listed as SΔ3): 35% at 100 µg/ml
Concentration of peptide to induce 50% haemolysis (Human erythrocytes): 120 µg/mL

Indolicin: cationic peptide (ILPWKWPWWPWRR; ends and bridges not checked; UniProt P33046 131-143, looked up)
MBC50 (P.aeruginosa): 64 µg/mL
MBC90 (P.aeruginosa): >128 µg/mL

Magainin II
MBC50 (P.aeruginosa): 64 µg/mL

Nisin
MBC50 (P.aeruginosa): 128 µg/mL

Ranalexin
MBC50 (P.aeruginosa): >128 µg/mL
